Data reported in EP1568770A2, “Pharmaceutical use of compounds which bind to a mammalian "trace amine" receptor” (priority 2000, dated 2002).
Entries after “also recorded” stand apart in the source; their conditions may differ. Where two headings read alike, the source gives them in different places.

What was measured:
rat trace amine receptor = molecular target: T1, rat trace amine receptor (Rattus norvegicus, UniProt Q923Y9); experiment: cell-based; assay type: cell-based; conditions: for Emax: HEK293, percent of stimulation by p-tyramine, read-out: Maximal Stimulation (%±SEM)
T1 construct: HEK293 cells stably transfected with the pcDNA3.1/V5/His-TOPO expression vector containing the full-length rat cDNA clone described above; expressed in transfected cells

HEK 293 cells = assay type: cell-based, human; conditions: luciferase reporter; control cells transfected with pcDNA3.1
Source text: Control cells were transfected with pcDNA3.1 without the rat trace amine receptor sequences. All cells were also co-transfected with 2 additional constructs: one (elk-gal) that encoded the yeast transcription factor gal under the transcriptional control of an Elk-responsive promoter; and another encoding firefly luciferase under the transcriptional control of a gal-responsive promoter. […]

[1] = tested on: human trace amine receptor; assay type: cell-based; conditions: luciferase reporter; HEK 293 cells transfected with H2-3pcDNA3.1
[2] = Table III, cAMP, 1 hour at 37°C, 100 µM IBMX, read-out: EC50 (nM±SEM)
[3] = untitled table after Table III, DRUGS, read-out: EC50

T1 sequence (Q923Y9 whole entry): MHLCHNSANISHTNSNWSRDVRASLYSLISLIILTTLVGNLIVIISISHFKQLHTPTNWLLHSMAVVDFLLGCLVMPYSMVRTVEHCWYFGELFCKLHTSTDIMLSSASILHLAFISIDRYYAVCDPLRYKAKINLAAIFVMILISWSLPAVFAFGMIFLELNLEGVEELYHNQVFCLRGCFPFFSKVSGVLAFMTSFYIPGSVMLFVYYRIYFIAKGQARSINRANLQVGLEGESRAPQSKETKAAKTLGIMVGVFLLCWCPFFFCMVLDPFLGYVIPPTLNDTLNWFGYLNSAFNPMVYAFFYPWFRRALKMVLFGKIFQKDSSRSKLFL

CCNC(C)Cc1ccccc1 (racemic) [(±)N-ethylamphetamine]
activation of the trace amine receptor / cAMP production, in words (rat trace amine receptor): substantially lower activities

CCNC(C)Cc1cccc(C(F)(F)F)c1 (racemic) [(±)fenfluramine]
activation of the trace amine receptor / cAMP production, in words (rat trace amine receptor): substantially lower activities

CNC(C)Cc1ccc2c(c1)OCO2 (racemic) [MDMA]
activation of the trace amine receptor / cAMP production, in words (rat trace amine receptor): potently stimulated cAMP production | Emax (rat trace amine receptor; Table III): 65 ± 13% | EC50 (rat trace amine receptor; [2]): 1750 ± 1150 nM | EC50 (rat trace amine receptor; [3]): 179 nM

COc1cc(CC(C)N)c(OC)cc1I (stereo not drawn) [2-amino,(1-[2,5-dimethoxy-4-iodophenyl]propane]
activation of the trace amine receptor / cAMP production, in words (rat trace amine receptor): activate the receptor

COc1cc(CCN)ccc1O [3-methoxytyramine]
activation of the trace amine receptor / cAMP production, in words (rat trace amine receptor): efficacious activators | activation of the trace amine receptor / cAMP production, in words (rat trace amine receptor; listed as 3-MT): potent and efficacious agonist

CC(N)Cc1ccc(O)cc1 (stereo not drawn) [4-hydroxyamphetamine, α-methyl-p-tyramine]
activation of the trace amine receptor / cAMP production, in words (rat trace amine receptor): most potent agonist | Emax (rat trace amine receptor; Table III): 79 ± 2% | EC50 (rat trace amine receptor; [2]): 51 ± 12 nM

NC1CCc2cc(O)c(O)cc2C1 (stereo not drawn) [ADTN67]
fold stimulation for each potential ligand compared with cells incubated in the absence of the ligand, pcDNA3.1 (HEK 293 cells): 0.78 fold | fold stimulation for each potential ligand compared with cells incubated in the absence of the ligand, H2-3 pcDNA3.1 [1]: 1.93 fold

CC(C)C[C@H]1C(=O)N2CCC[C@H]2[C@]2(O)O[C@](NC(=O)[C@@H]3C=C4c5cccc6[nH]c(Br)c(c56)C[C@H]4N(C)C3)(C(C)C)C(=O)N12 [Bromocryptine, bromocriptine]
activation of the trace amine receptor / cAMP production, in words (rat trace amine receptor): potently activate

CCN(CC)C(=O)[C@@H]1C=C2c3cccc4[nH]cc(c34)C[C@H]2N(C)C1 [D-LSD]
activation of the trace amine receptor / cAMP production, in words (rat trace amine receptor): potently activate

C[C@@H](CO)NC(=O)[C@@H]1C=C2c3cccc4[nH]cc(c34)C[C@H]2N(C)C1 [Ergotmetrine, ergometrine]
activation of the trace amine receptor / cAMP production, in words (rat trace amine receptor): potently activate

NCCCC(=O)O [GABA]
activation of the trace amine receptor / cAMP production, in words (rat trace amine receptor): not activated

CN1CC=C(c2ccccc2)CC1 [MPTP, 1-methyl-4-phenyl-1,2,3,6-tetrahydropyridine]
activation of the trace amine receptor / cAMP production, in words (rat trace amine receptor): stimulate camp production | Emax (rat trace amine receptor; Table III): 93 ± 7%

NC[C@H](O)c1ccc(O)c(O)c1 [Norepinephrine]
fold stimulation for each potential ligand compared with cells incubated in the absence of the ligand, pcDNA3.1 (HEK 293 cells): 1.3 fold | fold stimulation for each potential ligand compared with cells incubated in the absence of the ligand, H2-3 pcDNA3.1 [1]: 1.69 fold

NCC(O)c1ccc(O)cc1 (stereo not drawn) [Octopamine]
Emax (rat trace amine receptor; Table III): 102 ± 3% | EC50 (rat trace amine receptor; read-out: EC50 (nM±SEM)): 1300 ± 350 nM

NCCc1ccccc1 [Phenethylamine, β-phenethylamine]
Emax (rat trace amine receptor; Table III): 76 ± 16%

Cc1ccc(N(CC2=NCCN2)c2cccc(O)c2)cc1 [Phentolamine]
activation of the trace amine receptor / cAMP production, in words (rat trace amine receptor): stimulate camp production

C[C@@H](N)Cc1ccc(O)cc1 [R-OH amphetamine]
EC50 (rat trace amine receptor; [3]): 11.3 nM

CN[C@H](C)Cc1ccccc1 [R-methamphetamine]
EC50 (rat trace amine receptor; [3]): 236 nM

C=CCN1CCc2c(cc(O)c(O)c2Cl)C(c2ccccc2)C1 (stereo not drawn) [SKF82958]
fold stimulation for each potential ligand compared with cells incubated in the absence of the ligand, H2-3 pcDNA3.1 [1]: 2.52 fold

NCCc1c[nH]c2ccc(O)cc12 [Serotonin, 5-hydroxytryptamine]
Emax (rat trace amine receptor; Table III): 47 ± 9% | fold stimulation for each potential ligand compared with cells incubated in the absence of the ligand, pcDNA3.1 (HEK 293 cells): 1 fold

CNCC(O)c1ccc(O)cc1 (stereo not drawn) [Synephrine]
Emax (rat trace amine receptor; Table III): 90 ± 2%

c1ccc(CC2=NCCN2)cc1 [Tolazoline]
activation of the trace amine receptor / cAMP production, in words (rat trace amine receptor): stimulate camp production

NCCc1c[nH]c2ccccc12 [Tryptamine]
Emax (rat trace amine receptor; Table III): 90 ± 6% | EC50 (rat trace amine receptor; [2]): 309 ± 76 nM

CN(C)CCCN1c2ccccc2Sc2ccc(Cl)cc21 [chlorpromazine]
activation of the trace amine receptor / cAMP production, in words (rat trace amine receptor): weak agonist

CN1C[C@H](C(=O)N[C@]2(C)O[C@@]3(O)[C@@H]4CCCN4C(=O)[C@H](Cc4ccccc4)N3C2=O)C[C@@H]2c3cccc4[nH]cc(c34)C[C@H]21 [dihydroergotamine]
activation of the trace amine receptor / cAMP production, in words (rat trace amine receptor): potently activate; also recorded: stimulate camp production

NCCc1c[nH]cn1 [histamine]
activation of the trace amine receptor / cAMP production, in words (rat trace amine receptor): not activated

COc1cc(CC(=O)O)ccc1O [homovanillic acid, 3-methoxy-4-hydroxyphenylacetic acid]
activation of the trace amine receptor / cAMP production, in words (rat trace amine receptor): no detectible activity

NCCc1cccc(O)c1 [m-tyramine]
Emax (rat trace amine receptor; Table III): 74 ± 3%

CNCC(O)c1ccc(O)c(OC)c1 (stereo not drawn) [metanephrine, 3-methoxy-β-4-dihydroxy-N-methyl-β-phenethylamine]
activation of the trace amine receptor / cAMP production, in words (rat trace amine receptor): efficacious activators

CN1C[C@H](CNC(=O)OCc2ccccc2)C[C@@H]2c3cccc4c3c(cn4C)C[C@H]21 [metergoline]
activation of the trace amine receptor / cAMP production, in words (rat trace amine receptor): stimulate camp production

CN[C@@H](C)Cc1ccccc1 [methamphetamine]
activation of the trace amine receptor / cAMP production, in words (rat trace amine receptor): potently stimulated cAMP production

CN1CC[C@]23c4c5ccc(O)c4O[C@H]2[C@@H](O)C=C[C@H]3[C@H]1C5 [morphine]
activation of the trace amine receptor / cAMP production, in words (rat trace amine receptor): not activated

CN1CCCC1c1cccnc1 (stereo not drawn) [nicotine]
activation of the trace amine receptor / cAMP production, in words (rat trace amine receptor): not activated

CN1Cc2c(N)cccc2C(c2ccccc2)C1 (stereo not drawn) [nomifensine]
activation of the trace amine receptor / cAMP production, in words (rat trace amine receptor): stimulate camp production

COc1cc(C(O)CN)ccc1O (stereo not drawn) [normetanephrine, 3-methoxy-β-4-dihydroxy-β-phenethlamine]
activation of the trace amine receptor / cAMP production, in words (rat trace amine receptor): efficacious activators

NCCc1ccc(O)cc1 [p-tyramine]
EC50 (rat trace amine receptor; read-out: EC50 (nM±SEM)): 69 ± 9 nM
